Patent US20210045385A1, “PYRIDAZINONE-SUBSTITUTED KETOXIMES AS HERBICIDES” (FMC Corporation, priority 2018, published 2021)

Experiments:
Type in all cases: in vivo
[1] = tested on: pigweed (Amaranthus retroflexus); assay: Test C preemergence, visual plant response rating
How it was run: (§1)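 Seeds sown in a loam–sand blend got a directed preemergence soil spray; postemergence plants (2–10 cm, one- to two-leaf stage) were sprayed with compound in a non-phytotoxic solvent plus surfactant. Injury was scored visually against untreated controls after about 10 d in a greenhouse on a 0–100 scale (100 = complete control).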

kochia (Bassia scoparia) [2] = assay: Test C preemergence, visual plant response rating
How it was run: as §1

[3] = tested on: ragweed (common ragweed, Ambrosia artemisiifolia); assay: Test C preemergence, visual plant response rating
How it was run: as §1

[4] = tested on: barnyardgrass (Echinochloa crus-galli); assay: Test C preemergence, visual plant response rating
How it was run: as §1

[5] = tested on: foxtail, giant (giant foxtail, Setaria faberi); assay: Test C preemergence, visual plant response rating
How it was run: as §1

[6] = tested on: Italian ryegrass (Lolium mutiflorum); assay: Test C preemergence, visual plant response rating
How it was run: as §1

[7] = tested on: pigweed (Amaranthus retroflexus); assay: Test C postemergence, visual plant response rating
How it was run: as §1

corn (Zea mays) = assay: Test C postemergence, visual plant response rating; settings: Test C, postemergence
How it was run: as §1

kochia (Bassia scoparia) [8] = assay: Test C postemergence, visual plant response rating; settings: Test C, postemergence
How it was run: as §1

[9] = tested on: ragweed (common ragweed, Ambrosia artemisiifolia); assay: Test C postemergence, visual plant response rating
How it was run: as §1

[10] = tested on: barnyardgrass (Echinochloa crus-galli); assay: Test C postemergence, visual plant response rating; settings: Test C, postemergence
How it was run: as §1

[11] = tested on: blackgrass (Alopecurus myosuroides); assay: Test C postemergence, visual plant response rating; settings: Test C, postemergence
How it was run: as §1

[12] = tested on: wheat (Triticum aestivum); assay: Test C postemergence, visual plant response rating
How it was run: as §1

[13] = tested on: foxtail, giant (giant foxtail, Setaria faberi); assay: Test C postemergence, visual plant response rating; settings: Test C, postemergence
How it was run: as §1

[14] = tested on: Italian ryegrass (Lolium mutiflorum); assay: Test C postemergence, visual plant response rating
How it was run: as §1

[15] = tested on: galium (catchweed bedstraw, Galium aparine); assay: Test C postemergence, visual plant response rating; settings: Test C, postemergence
How it was run: as §1

[16] = tested on: sedge umbrella (small-flower umbrella sedge, Cyperus difformis); assay: Test D flooded paddy test, visual plant response rating; settings: 250 g ai/ha, scale 0 to 100 (0 no effect, 100 complete control), 13 to 15 d
How it was run: (§2)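 Greenhouse paddy assay scored on a 0–100 visual scale after 13 to 15 d, where 100 means complete control and a dash marks no result; dosing was into 3 cm floodwater over 2-leaf plants.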

rice (Oryza sativa) = assay: as above; settings: 250 g ai/ha, scale 0 to 100 (0 no effect, 100 complete control), 13 to 15 d
How it was run: as §2

[17] = tested on: duck salad (Heteranthera limosa); assay: as above; settings: 250 g ai/ha, scale 0 to 100 (0 no effect, 100 complete control), 13 to 15 d
How it was run: as §2

[18] = tested on: barnyardgrass (Echinochloa crus-galli); assay: as above; settings: 250 g ai/ha, scale 0 to 100 (0 no effect, 100 complete control), 13 to 15 d
How it was run: as §2

[19] = Test C, 31 g ai/ha, 0 is no effect, 100 is complete control
[20] = Test C, postemergence, 125 g ai/ha

Compound | Pigweed plant response rating (0 to 100 scale) ([1]; 125 g ai/ha) | Pigweed plant response rating (0 to 100 scale) [1, 19] | Kochia plant response rating (0 to 100 scale) (kochia (Bassia scoparia) [2]; 125 g ai/ha) | Kochia plant response rating (0 to 100 scale) (kochia (Bassia scoparia) [2]; [19]) | Ragweed plant response rating (0 to 100 scale) ([3]; 125 g ai/ha) | Ragweed plant response rating (0 to 100 scale) [3, 19] | Barnyardgrass plant response rating (0 to 100 scale) ([4]; 125 g ai/ha) | Barnyardgrass plant response rating (0 to 100 scale) [4, 19] | Foxtail, Giant plant response rating (0 to 100 scale) ([5]; 125 g ai/ha) | Foxtail, Giant plant response rating (0 to 100 scale) [5, 19] | Ryegrass, Italian plant response rating (0 to 100 scale) ([6]; 125 g ai/ha) | Ryegrass, Italian plant response rating (0 to 100 scale) [6, 19] | Pigweed plant response rating (0 to 100 scale) ([7]; Postemergence, 31 g ai/ha) | Pigweed plant response rating (0 to 100 scale) [7, 20] | Corn plant response rating (0 to 100 scale) (corn (Zea mays); 31 g ai/ha) | Corn plant response rating (0 to 100 scale) (corn (Zea mays); 125 g ai/ha) | Kochia plant response rating (0 to 100 scale) (kochia (Bassia scoparia) [8]; 31 g ai/ha) | Kochia plant response rating (0 to 100 scale) (kochia (Bassia scoparia) [8]; 125 g ai/ha) | Ragweed plant response rating (0 to 100 scale) ([9]; Postemergence, 31 g ai/ha) | Ragweed plant response rating (0 to 100 scale) [9, 20] | also measured
CO/N=C(\c1cc(Cl)cc(Br)c1)c1c(O)c(C)nn(C)c1=O [Compound 157] | 40 | 10 | 100 | 50 | 100 | 100 | 90 | 70 | 100 | 80 | 100 | 90 | 20 | 60 | 10 | 30 | 80 | 100 | 70 | 100 | Barnyardgrass plant response rating (0 to 100 scale) ([10]; 31 g ai/ha): 30; Barnyardgrass plant response rating (0 to 100 scale) ([10]; 125 g ai/ha): 80; Blackgrass plant response rating (0 to 100 scale) ([11]; 31 g ai/ha): 10; Blackgrass plant response rating (0 to 100 scale) ([11]; 125 g ai/ha): 20; Wheat plant response rating (0 to 100 scale) ([12]; Postemergence, 31 g ai/ha): 0; Wheat plant response rating (0 to 100 scale) [12, 20]: 60; Foxtail, Giant plant response rating (0 to 100 scale) ([13]; 31 g ai/ha): 60; Foxtail, Giant plant response rating (0 to 100 scale) ([13]; 125 g ai/ha): 90; Ryegrass, Italian plant response rating (0 to 100 scale) ([14]; Postemergence, 31 g ai/ha): 70; Ryegrass, Italian plant response rating (0 to 100 scale) [14, 20]: 100; Galium plant response rating (0 to 100 scale) ([15]; 31 g ai/ha): 90; Galium plant response rating (0 to 100 scale) ([15]; 125 g ai/ha): 100; Plant response rating, Sedge, Umbrella (Flood) [16]: 0; Plant response rating, Rice (Flood) (rice (Oryza sativa)): 0; Plant response rating, Ducksalad (Flood) [17]: 0; Plant response rating, Barnyardgrass (Flood) [18]: 0
Cc1nn(C)c(=O)c(/C(=N/OCc2ccccc2)c2ccc(F)c3ccccc23)c1O [Compound 158] | 50 | 0 | 0 | 0 | 40 | 40 | 30 | 20 | 80 | 10 | 0 | 0 | 50 | 50 | 0 | 10 | 0 | 0 | 40 | 60 | Barnyardgrass plant response rating (0 to 100 scale) ([10]; 31 g ai/ha): 50; Barnyardgrass plant response rating (0 to 100 scale) ([10]; 125 g ai/ha): 70; Blackgrass plant response rating (0 to 100 scale) ([11]; 31 g ai/ha): 0; Blackgrass plant response rating (0 to 100 scale) ([11]; 125 g ai/ha): 10; Wheat plant response rating (0 to 100 scale) ([12]; Postemergence, 31 g ai/ha): 0; Wheat plant response rating (0 to 100 scale) [12, 20]: 0; Foxtail, Giant plant response rating (0 to 100 scale) ([13]; 31 g ai/ha): 30; Foxtail, Giant plant response rating (0 to 100 scale) ([13]; 125 g ai/ha): 70; Ryegrass, Italian plant response rating (0 to 100 scale) ([14]; Postemergence, 31 g ai/ha): 0; Ryegrass, Italian plant response rating (0 to 100 scale) [14, 20]: 20; Galium plant response rating (0 to 100 scale) ([15]; 31 g ai/ha): 90; Galium plant response rating (0 to 100 scale) ([15]; 125 g ai/ha): 0; Plant response rating, Sedge, Umbrella (Flood) [16]: 65; Plant response rating, Rice (Flood) (rice (Oryza sativa)): 15; Plant response rating, Ducksalad (Flood) [17]: 50; Plant response rating, Barnyardgrass (Flood) [18]: 45
